The results in this text go back to ChEMBL document CHEMBL1152546, “N-[2-chloro-9H-purin-6-yl]-N-cyclopropylglycylamino acids and derivatives: synthesis, evaluation as a class of novel analgesics, and 3D QSAR analysis” (2009).

Common to all, as to type: functional
Test [1] relates to Mus musculus. As to the kind of experiment: Analgesic activity in ICR mouse assessed as pain threshold variation at 25 umol/kg, po administered as single dose measured after 150 mins by tail flick test relative to control. (In general: In hot-plate and tail-flick tests a longer latency is read as antinociception.)
The test system of test [2] is Mus musculus. Nature of the test: Analgesic activity in ICR mouse assessed as pain threshold variation at 25 umol/kg, po administered as single dose measured after 60 mins by tail flick test relative to control.
Test [3] relates to Mus musculus. As to the kind of experiment: Analgesic activity in ICR mouse assessed as pain threshold variation at 25 umol/kg, po administered as single dose measured after 30 mins by tail flick test relative to control.
Test [4] concerns Mus musculus. Nature of the test: Analgesic activity in ICR mouse assessed as pain threshold variation at 25 umol/kg, po administered as single dose measured after 90 mins by tail flick test relative to control.
Test [5] deals with Mus musculus. Nature of the test: Analgesic activity in ICR mouse assessed as pain threshold variation at 25 umol/kg, po administered as single dose measured after 120 mins by tail flick test relative to control.
Test [6] relates to Mus musculus. As to the kind of experiment: Analgesic activity in ICR mouse assessed as pain threshold variation at 25 umol/kg, po administered as single dose measured after 180 mins by tail flick test relative to control.

SMILES strings stand for the structures.

`O=C(CN(c1nc(Cl)nc2[nH]cnc12)C1CC1)N[C@@H](Cc1cnc[nH]1)C(=O)O`: the Activity in test [1] was found to be 4.42%; in test [2] it was 27.68%; in test [3] it was 31.71%; in test [4], 16.07%; in test [5] it was 10.66%; in test [6], 3.39%.
Regarding `C[C@H](NC(=O)CN(c1nc(Cl)nc2[nH]cnc12)C1CC1)C(=O)OCc1ccccc1`, the Activity was determined as 23% in test [1]; 64.29% in test [2]; 41.23% in test [3]; 44.16% in test [4]; 36.13% in test [5]; 15.09% in test [6].
As to `NC(=O)CC[C@H](NC(=O)CN(c1nc(Cl)nc2[nH]cnc12)C1CC1)C(=O)O`, the Activity in test [1] was 11.38%; in test [2], 38.4%; in test [3] it was 33.11%; in test [4], 41.1%; in test [5] it was 17.75%; in test [6], 9.07%.
`O=C(CN(c1nc(Cl)nc2[nH]cnc12)C1CC1)N[C@@H](Cc1ccc(O)cc1)C(=O)OCc1ccccc1`: the Activity in test [1] is on record as 9.38%; in test [2] it was 22%; in test [3] it was 22.6%; in test [4], 15.02%; in test [5], 13.65%; in test [6] it was 4.33%.
For the compound `CC[C@H](C)[C@H](NC(=O)CN(c1nc(Cl)nc2[nH]cnc12)C1CC1)C(=O)OCc1ccccc1`, the Activity is listed as 6.9% in test [1]; 40.63% in test [2]; 41.39% in test [3]; 36.28% in test [4]; 21.97% in test [5]; 3.38% in test [6].
In the case of `O=C(O)CC[C@H](NC(=O)CN(c1nc(Cl)nc2[nH]cnc12)C1CC1)C(=O)O`, the Activity is on record as 29.46% in test [1]; 33.25% in test [2]; 26.81% in test [3]; 44.7% in test [4]; 30.08% in test [5]; 10.05% in test [6].
Consider `CC(C)C[C@H](NC(=O)CN(c1nc(Cl)nc2[nH]cnc12)C1CC1)C(=O)OCc1ccccc1`, for which the Activity is 5.26% in test [1]; 27.26% in test [2]; 33.91% in test [3]; 15.21% in test [4]; 8.58% in test [5]; 4.29% in test [6].
Turning to `O=C(CN(c1nc(Cl)nc2[nH]cnc12)C1CC1)N[C@@H](Cc1ccccc1)C(=O)OCc1ccccc1`, the Activity in test [1] was determined as 10.73%; in test [2] it was 38.92%; in test [3], 39.38%; in test [4], 27.14%; in test [5] it was 20.4%; in test [6], 5.15%.
For the compound `O=C(O)CNC(=O)CN(c1nc(Cl)nc2[nH]cnc12)C1CC1`, the Activity in test [1] amounted to 9.08%; in test [2] it was 38.89%; in test [3], 32.16%; in test [4], 32.31%; in test [5], 19.81%; in test [6], 8.11%.
On to `O=C(CN(c1nc(Cl)nc2[nH]cnc12)C1CC1)N[C@@H](Cc1ccc(O)cc1)C(=O)O`, for which the Activity in test [1] was determined as 13.71%; in test [2], 43.23%; in test [3], 46.22%; in test [4], 33.92%; in test [5] it was 23.69%; in test [6], 8.15%.
Consider `O=C(CN(c1ncnc2c1ncn2C1CCCCO1)C1CC1)N[C@@H](Cc1ccc(O)cc1)C(=O)OCc1ccccc1` (stereo partly specified), for which the Activity in test [1] amounted to 8.71%; in test [2], 35.82%; in test [3], 20.53%; in test [4] it was 36.45%; in test [5] it was 17.44%; in test [6], 5.02%.
